In the NIST ThermoML archive (doi:10.1021/je900428g):
Several values for one entry are separate records, joined by “and”; a condition that tells them apart may be missing. Equal entries are not always repeated. Numbers after ± are expanded uncertainties.

Settings: Fluid (supercritical or subcritical phases), Spherical resonator

[Ar] [argon]
Settings	speed of sound
250 K, 53.7 kPa	294.48 ± 0.5 m/s
250 K, 198 kPa	294.47 ± 0.5 m/s
250 K, 329.4 kPa	294.47 ± 0.5 m/s
250 K, 2365.8 kPa	294.8 ± 0.5 m/s
250 K, 4652.9 kPa	296.36 ± 0.5 m/s
250 K, 5823 kPa	297.76 ± 0.51 m/s
250.16 K, 48.7 kPa	294.57 ± 0.5 m/s
250.16 K, 48.8 kPa	294.58 ± 0.5 m/s
250.16 K, 192 kPa	294.57 ± 0.5 m/s
250.16 K, 309.1 kPa	294.57 ± 0.5 m/s
250.16 K, 447.7 kPa	294.56 ± 0.5 m/s and 294.57 ± 0.5 m/s
250.16 K, 598.6 kPa	294.56 ± 0.5 m/s and 294.57 ± 0.5 m/s
250.16 K, 732.5 kPa	294.56 ± 0.5 m/s and 294.58 ± 0.5 m/s
250.16 K, 875.6 kPa	294.58 ± 0.5 m/s
250.16 K, 1401.1 kPa	294.62 ± 0.5 m/s and 294.65 ± 0.5 m/s
260 K, 198.6 kPa	300.35 ± 0.51 m/s
260 K, 327.3 kPa	300.37 ± 0.51 m/s
260 K, 3507.5 kPa	301.95 ± 0.51 m/s
260 K, 4624 kPa	303.04 ± 0.51 m/s
260 K, 6602.3 kPa	305.84 ± 0.52 m/s
270 K, 53.2 kPa	306.06 ± 0.52 m/s
270 K, 200 kPa	306.11 ± 0.52 m/s
270 K, 325.8 kPa	306.15 ± 0.52 m/s
270 K, 467.2 kPa	306.2 ± 0.52 m/s
270 K, 3521.8 kPa	308.29 ± 0.52 m/s
270 K, 4675.9 kPa	309.59 ± 0.52 m/s
270 K, 5775.2 kPa	311.12 ± 0.53 m/s
275.1 K, 47.6 kPa	308.94 ± 0.52 m/s
275.1 K, 206.8 kPa	309.01 ± 0.52 m/s
275.1 K, 206.9 kPa	309.01 ± 0.52 m/s
275.1 K, 384.3 kPa	309.09 ± 0.52 m/s and 309.1 ± 0.52 m/s
275.1 K, 547.4 kPa	309.17 ± 0.52 m/s and 309.18 ± 0.52 m/s
275.1 K, 591.7 kPa	309.2 ± 0.52 m/s
275.1 K, 706.2 kPa	309.25 ± 0.52 m/s and 309.26 ± 0.52 m/s
275.1 K, 733.8 kPa	309.27 ± 0.52 m/s and 309.28 ± 0.52 m/s
275.1 K, 860.2 kPa	309.34 ± 0.52 m/s and 309.33 ± 0.52 m/s and 309.35 ± 0.52 m/s
275.1 K, 860.3 kPa	309.35 ± 0.52 m/s
275.1 K, 1389.2 kPa	309.65 ± 0.52 m/s
275.1 K, 1389.3 kPa	309.67 ± 0.52 m/s
280 K, 200.1 kPa	311.76 ± 0.53 m/s
280 K, 328.3 kPa	311.83 ± 0.53 m/s
280 K, 2342.8 kPa	313.26 ± 0.53 m/s
280 K, 4647.9 kPa	315.83 ± 0.53 m/s
280 K, 5767 kPa	317.48 ± 0.53 m/s
280 K, 6610.3 kPa	318.94 ± 0.54 m/s
280.12 K, 99.1 kPa	311.77 ± 0.53 m/s
280.12 K, 305.2 kPa	311.87 ± 0.53 m/s
280.12 K, 307.7 kPa	311.89 ± 0.53 m/s
280.12 K, 529.4 kPa	312 ± 0.53 m/s
280.12 K, 531.1 kPa	312.01 ± 0.53 m/s
280.12 K, 745.8 kPa	312.13 ± 0.53 m/s
280.12 K, 748 kPa	312.14 ± 0.53 m/s
280.12 K, 962.4 kPa	312.27 ± 0.53 m/s
280.12 K, 964.6 kPa	312.28 ± 0.53 m/s
280.12 K, 1184.9 kPa	312.42 ± 0.53 m/s
280.12 K, 1396.4 kPa	312.58 ± 0.53 m/s
280.12 K, 1396.8 kPa	312.57 ± 0.53 m/s
280.12 K, 1601.7 kPa	312.72 ± 0.53 m/s
280.12 K, 1834.4 kPa	312.91 ± 0.53 m/s
290 K, 53.6 kPa	317.2 ± 0.53 m/s
290 K, 196.4 kPa	317.3 ± 0.53 m/s
290 K, 1191.6 kPa	318.04 ± 0.53 m/s
290 K, 2325 kPa	319.08 ± 0.54 m/s
290 K, 3477.8 kPa	320.36 ± 0.54 m/s
300 K, 30.5 kPa	322.62 ± 0.54 m/s
300 K, 183.8 kPa	322.74 ± 0.54 m/s
300 K, 308.3 kPa	322.84 ± 0.54 m/s
300 K, 1180.9 kPa	323.61 ± 0.54 m/s
300 K, 2331.5 kPa	324.81 ± 0.55 m/s
300 K, 4657.3 kPa	327.88 ± 0.55 m/s
300 K, 5832.9 kPa	329.8 ± 0.55 m/s
300 K, 6595.8 kPa	331.21 ± 0.56 m/s
300.11 K, 100.3 kPa	322.73 ± 0.54 m/s
300.11 K, 244.7 kPa	322.85 ± 0.54 m/s
300.11 K, 395.4 kPa	322.98 ± 0.54 m/s
300.11 K, 528 kPa	323.11 ± 0.54 m/s
300.11 K, 558.1 kPa	323.12 ± 0.54 m/s
300.11 K, 701.6 kPa	323.24 ± 0.54 m/s
300.11 K, 739.1 kPa	323.3 ± 0.54 m/s
300.11 K, 868 kPa	323.39 ± 0.54 m/s
300.11 K, 963 kPa	323.5 ± 0.54 m/s
300.11 K, 1011.7 kPa	323.53 ± 0.54 m/s
300.11 K, 1166.1 kPa	323.69 ± 0.54 m/s
300.11 K, 1618 kPa	324.14 ± 0.54 m/s
300.11 K, 1836.4 kPa	324.37 ± 0.54 m/s
300.12 K, 48.1 kPa	322.69 ± 0.54 m/s
300.12 K, 193 kPa	322.81 ± 0.54 m/s
300.12 K, 308.1 kPa	322.91 ± 0.54 m/s
300.12 K, 445.5 kPa	323.02 ± 0.54 m/s and 323.03 ± 0.54 m/s
300.12 K, 729.9 kPa	323.27 ± 0.54 m/s and 323.28 ± 0.54 m/s
300.12 K, 868.1 kPa	323.39 ± 0.54 m/s
300.12 K, 868.2 kPa	323.4 ± 0.54 m/s and 323.41 ± 0.54 m/s
300.12 K, 1378.6 kPa	323.87 ± 0.54 m/s and 323.89 ± 0.54 m/s
310 K, 104.7 kPa	328.02 ± 0.55 m/s
310 K, 198.6 kPa	328.11 ± 0.55 m/s
310 K, 329.2 kPa	328.23 ± 0.55 m/s
310 K, 463.4 kPa	328.35 ± 0.55 m/s
310 K, 2330.1 kPa	330.38 ± 0.55 m/s
310 K, 4624.6 kPa	333.59 ± 0.56 m/s
310 K, 6595.8 kPa	337.02 ± 0.56 m/s
320 K, 102 kPa	333.28 ± 0.56 m/s
320 K, 180.5 kPa	333.35 ± 0.56 m/s
320 K, 311 kPa	333.48 ± 0.56 m/s
320 K, 450.5 kPa	333.63 ± 0.56 m/s
320 K, 576.4 kPa	333.77 ± 0.56 m/s and 333.79 ± 0.56 m/s
320 K, 1053.9 kPa	334.3 ± 0.56 m/s and 334.32 ± 0.56 m/s
320 K, 1550.8 kPa	334.89 ± 0.56 m/s and 334.9 ± 0.56 m/s
320 K, 2333.1 kPa	335.85 ± 0.56 m/s
320 K, 4482.2 kPa	339 ± 0.57 m/s
320 K, 5819.9 kPa	341.24 ± 0.57 m/s
325.05 K, 48.1 kPa	335.83 ± 0.56 m/s
325.05 K, 192.9 kPa	336 ± 0.56 m/s and 335.99 ± 0.56 m/s
325.05 K, 314.5 kPa	336.13 ± 0.56 m/s
325.05 K, 438.6 kPa	336.27 ± 0.56 m/s
325.05 K, 592.7 kPa	336.44 ± 0.56 m/s
325.05 K, 736 kPa	336.6 ± 0.56 m/s
325.05 K, 870.8 kPa	336.76 ± 0.56 m/s
325.05 K, 1376.5 kPa	337.36 ± 0.56 m/s
325.05 K, 1376.6 kPa	337.37 ± 0.56 m/s
325.05 K, 2721.4 kPa	339.14 ± 0.57 m/s
349.87 K, 48.9 kPa	348.43 ± 0.58 m/s and 348.44 ± 0.58 m/s
349.87 K, 182.8 kPa	348.62 ± 0.58 m/s
349.87 K, 182.9 kPa	348.61 ± 0.58 m/s
349.87 K, 307.3 kPa	348.77 ± 0.58 m/s and 348.78 ± 0.58 m/s
349.87 K, 447 kPa	348.95 ± 0.58 m/s and 348.97 ± 0.58 m/s
349.87 K, 594.5 kPa	349.14 ± 0.58 m/s
349.87 K, 726.7 kPa	349.32 ± 0.58 m/s and 349.34 ± 0.58 m/s
349.87 K, 864.5 kPa	349.5 ± 0.58 m/s
349.87 K, 864.6 kPa	349.52 ± 0.58 m/s
349.87 K, 1397.7 kPa	350.24 ± 0.58 m/s and 350.26 ± 0.58 m/s
349.87 K, 2711.2 kPa	352.19 ± 0.59 m/s
